In PMC7879681, “Baicalein inhibits heparin-induced Tau aggregation by initializing non-toxic Tau oligomer formation” (Cell Communication and Signaling : CCS, 2021):

Molecular target: T1, full-length Tau (hTau40WT) (Homo sapiens, UniProt P10636)
T1 construct: gene MAPT; recombinant wild type human full-length Tau (hTau40WT)
Assay: ThS fluorescence inhibition of heparin-induced aggregation of purified Tau; supported by ANS, SDS-PAGE, CD, TEM; dissolves preformed fibrils (DC50 […])
Type: biochemical

T1 sequence (P10636 2-441 isoform P10636-8): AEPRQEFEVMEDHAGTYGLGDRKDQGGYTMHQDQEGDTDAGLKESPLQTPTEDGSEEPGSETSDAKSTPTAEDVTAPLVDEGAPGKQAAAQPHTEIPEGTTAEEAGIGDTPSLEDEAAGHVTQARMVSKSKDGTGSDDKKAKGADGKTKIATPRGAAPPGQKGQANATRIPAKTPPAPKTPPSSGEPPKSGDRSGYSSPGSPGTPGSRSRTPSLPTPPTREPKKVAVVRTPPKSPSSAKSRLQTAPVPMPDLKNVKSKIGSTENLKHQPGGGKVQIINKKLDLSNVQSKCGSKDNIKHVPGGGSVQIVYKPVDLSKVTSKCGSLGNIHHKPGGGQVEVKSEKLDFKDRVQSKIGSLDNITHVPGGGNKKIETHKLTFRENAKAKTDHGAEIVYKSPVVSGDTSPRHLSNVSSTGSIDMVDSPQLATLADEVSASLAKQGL

Q: With `O=c1cc(-c2ccccc2)oc2cc(O)c(O)c(O)c12` [Baicalein] as the compound, how does the IC50 read?
A: Its IC50 is 27.7 µM.
